# Data as given in publication PMC4821771 (The Journal of steroid biochemistry and molecular biology, 2016).
# “Also recorded” adds a separate entry of the source.
# Experiments:
# [1] = tested on: CYP3A4; details: cited from earlier work
# [2] = tested on: human liver microsomes; assay: Metabolism of 20; type: in vitro ADME; details: for proportion of 20,25(OH)2D3:20,24R(OH)2D3:20,24S(OH)2D3 at the end of the time course: products of 20(OH)D3, human liver microsomes (Fig. S5A)
# [3] = tested on: SKMEL-188 melanoma cells; details: cited from earlier work
# [4] = biological target: recombinant human CYP3A4 (Homo sapiens, UniProt P08684); assay: Metabolism by CYP3A4 supersomes; type: in vitro ADME; details: for proportion of 20,25(OH)2D3:20,24R(OH)2D3:20,24S(OH)2D3: products of 20(OH)D3, CYP3A4 (Fig. S3A); for Km / kcat: initial rates of formation of all products, substrate in 0.45% HP-β-CD, 60 nM CYP3A4, mean ± standard error of the curve fit
# Chain of recombinant human CYP3A4 (P08684 2-503 limits assumed): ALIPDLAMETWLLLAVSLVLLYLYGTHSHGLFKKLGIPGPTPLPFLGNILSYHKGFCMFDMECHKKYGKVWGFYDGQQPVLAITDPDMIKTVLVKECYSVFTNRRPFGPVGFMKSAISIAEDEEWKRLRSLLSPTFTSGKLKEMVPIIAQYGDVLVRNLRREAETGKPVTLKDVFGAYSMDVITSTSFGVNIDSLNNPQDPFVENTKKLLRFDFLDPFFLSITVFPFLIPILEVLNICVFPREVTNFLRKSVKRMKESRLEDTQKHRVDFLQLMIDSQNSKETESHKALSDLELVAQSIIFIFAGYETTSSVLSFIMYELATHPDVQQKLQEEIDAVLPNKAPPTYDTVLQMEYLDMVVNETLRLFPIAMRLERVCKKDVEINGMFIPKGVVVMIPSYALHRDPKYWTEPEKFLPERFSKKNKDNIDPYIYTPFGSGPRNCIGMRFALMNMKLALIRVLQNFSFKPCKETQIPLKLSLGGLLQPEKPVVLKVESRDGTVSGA
# [5] = tested on: human liver microsomes; assay: Incubation of human liver microsomes with CYP3A4 inhibitors; details: for decrease of total products: 50 μM 20(OH)D3, 30 min
# [6] = tested on: human liver microsomes
# [7] = high doses, up to 60 μg/kg in rodents; cited from earlier work
# [8] = total product formation from 20(OH)D3, microsomes 1.5 mg/mL
compound,measurement,setting,value
"C=C1CC[C@H](O)C/C1=C/C=C1\CCC[C@]2(C)[C@@H]([C@H](C)CCCC(C)(C)O)CC[C@@H]12 [25(OH)D3, 25-hydroxyvitamin D3]",catalytic efficiency for metabolism by CYP3A4,[1],1.32 min⁻¹ µM⁻¹
"C=C1CC[C@H](O)C/C1=C/C=C1\CCC[C@@]2(C)[C@H]1CC[C@@H]2[C@@](C)(O)CCCC(C)(C)O [20,25(OH)2D3, 20,25-dihydroxyvitamin D3]",Vmax,"[2]; formation of the named product from 20(OH)D3, as given in the text",134.2 ± 36.0 pmol/min/mg protein
same,"proportion of 20,25(OH)2D3:20,24R(OH)2D3:20,24S(OH)2D3 at the end of the time course",[2],1
same,inhibition of colony formation compared with 20(OH)D3,[3],more potent; also recorded: more strongly than the parent 20(OH)D3
same,further metabolism by CYP3A4,"[4]; 25 μM substrate in 0.45% HP-β-CD, 60 nM CYP3A4, one hour",essentially no products formed
same,"proportion of 20,25(OH)2D3:20,24R(OH)2D3:20,24S(OH)2D3",[4],1
CC[C@]1(C)C[C@@H](OC(=O)CSc2nnc(N)[nH]2)[C@]2(C)[C@H](C)CC[C@]3(CCC(=O)[C@H]32)[C@@H](C)[C@@H]1O [azamulin],decrease of total products,[5]; 1 μM azamulin,60.0%
same,decrease of total products,[5]; 10 μM azamulin,75.9%
same,"inhibition of production of 20,24R(OH)2D3, 20,24S(OH)2D3 and 20,25(OH)2D3","[5]; human liver microsomes, abstract statement",almost completely inhibited
"C=C1CC[C@H](O)C/C1=C/C=C1\CCC[C@@]2(C)[C@H]1CC[C@@H]2[C@@](C)(O)CC[C@@H](O)C(C)C [20,24R(OH)2D3, 20,24R-dihydroxyvitamin D3]","proportion of 20,25(OH)2D3:20,24R(OH)2D3:20,24S(OH)2D3 at the end of the time course",[2],0.47
same,inhibition of colony formation compared with 20(OH)D3,[3],more potent; also recorded: more strongly than the parent 20(OH)D3
same,Km,[4],332 ± 194 µM
same,kcat,[4],1.08 ± 0.475 s⁻¹
same,"proportion of 20,25(OH)2D3:20,24R(OH)2D3:20,24S(OH)2D3",[4],0.41
"C=C1CC[C@H](O)C/C1=C/C=C1\CCC[C@@]2(C)[C@H]1CC[C@@H]2[C@@](C)(O)CC[C@H](O)C(C)C [20,24S(OH)2D3, 20,24S-dihydroxyvitamin D3]","proportion of 20,25(OH)2D3:20,24R(OH)2D3:20,24S(OH)2D3 at the end of the time course",[2],0.16
same,Km,[4],86.9 ± 44.3 µM
same,kcat,[4],0.275 ± 0.0717 s⁻¹
same,"proportion of 20,25(OH)2D3:20,24R(OH)2D3:20,24S(OH)2D3",[4],0.14
NNC(=O)c1ccncc1 [isoniazid],"effect on peaks corresponding to 20,25(OH)2D3, 20,24R(OH)2D3/20,26(OH)2D3, 20,24S(OH)2D3 and H6",[6],markedly decreased
"C=C1CC[C@H](O)C/C1=C/C=C1\CCC[C@@]2(C)[C@H]1CC[C@@H]2[C@@](C)(O)CCCC(C)C [20(OH)D3, 20S-Hydroxyvitamin D3]",Km,[2]; [8],165 ± 56 µM
same,Vmax,[2]; [8],292.6 ± 60.3 min⁻¹
same,more products with substrate in HP-β-CD than when added from acetonitrile,"[4]; CYP3A4 supersomes, not shown",25 fold
same,metabolised faster than 25(OH)D3 (times),"[4]; formation of total products, 50 μM substrate (Fig. S3B)",approximately 30 times
same,Km,[4],32.6 ± 2.8 µM
same,kcat,[4],0.295 ± 0.0083 s⁻¹
same,substrate consumed by the end of the incubation,[4]; time course of 20(OH)D3 metabolism by CYP3A4 (Fig. S3A),18%
same,hypercalcaemia,[7],does not induce hypercalcaemia
"C=C1/C(=C\C=C2/CCC[C@]3(C)[C@@H]([C@H](C)CCCC(C)(C)O)CC[C@@H]23)C[C@@H](O)C[C@@H]1O [1,25(OH)2D3, 1,25-dihydroxyvitamin D3]",efficiency of metabolism by CYP3A4,[1],0.70 min^−1μM^−1
